Data on 17 molecules can be found in patent US7626031B2, “Substituted 3-(diarylmethylene)indolin-2-ones and methods of their use” (Symphony Evolution, Inc., priority 2002, dated 2009).

The target of one experiment is IRK (Homo sapiens, UniProt P06213). Description: Kinase assay, IRK. The format is biochemical. As for the experimental part: (§1) Kinase activity and compound inhibition are investigated using one or more assay formats. The ATP concentrations for each assay are selected to be close to the Michaelis-Menten constant (KM) for each individual kinase. Dose-response experiments are performed at 10 different inhibitor concentrations in a 384-well plate format. […] Exemplary kinase assays are described below. KDR Assay
Sequence of IRK (P06213 28-1382): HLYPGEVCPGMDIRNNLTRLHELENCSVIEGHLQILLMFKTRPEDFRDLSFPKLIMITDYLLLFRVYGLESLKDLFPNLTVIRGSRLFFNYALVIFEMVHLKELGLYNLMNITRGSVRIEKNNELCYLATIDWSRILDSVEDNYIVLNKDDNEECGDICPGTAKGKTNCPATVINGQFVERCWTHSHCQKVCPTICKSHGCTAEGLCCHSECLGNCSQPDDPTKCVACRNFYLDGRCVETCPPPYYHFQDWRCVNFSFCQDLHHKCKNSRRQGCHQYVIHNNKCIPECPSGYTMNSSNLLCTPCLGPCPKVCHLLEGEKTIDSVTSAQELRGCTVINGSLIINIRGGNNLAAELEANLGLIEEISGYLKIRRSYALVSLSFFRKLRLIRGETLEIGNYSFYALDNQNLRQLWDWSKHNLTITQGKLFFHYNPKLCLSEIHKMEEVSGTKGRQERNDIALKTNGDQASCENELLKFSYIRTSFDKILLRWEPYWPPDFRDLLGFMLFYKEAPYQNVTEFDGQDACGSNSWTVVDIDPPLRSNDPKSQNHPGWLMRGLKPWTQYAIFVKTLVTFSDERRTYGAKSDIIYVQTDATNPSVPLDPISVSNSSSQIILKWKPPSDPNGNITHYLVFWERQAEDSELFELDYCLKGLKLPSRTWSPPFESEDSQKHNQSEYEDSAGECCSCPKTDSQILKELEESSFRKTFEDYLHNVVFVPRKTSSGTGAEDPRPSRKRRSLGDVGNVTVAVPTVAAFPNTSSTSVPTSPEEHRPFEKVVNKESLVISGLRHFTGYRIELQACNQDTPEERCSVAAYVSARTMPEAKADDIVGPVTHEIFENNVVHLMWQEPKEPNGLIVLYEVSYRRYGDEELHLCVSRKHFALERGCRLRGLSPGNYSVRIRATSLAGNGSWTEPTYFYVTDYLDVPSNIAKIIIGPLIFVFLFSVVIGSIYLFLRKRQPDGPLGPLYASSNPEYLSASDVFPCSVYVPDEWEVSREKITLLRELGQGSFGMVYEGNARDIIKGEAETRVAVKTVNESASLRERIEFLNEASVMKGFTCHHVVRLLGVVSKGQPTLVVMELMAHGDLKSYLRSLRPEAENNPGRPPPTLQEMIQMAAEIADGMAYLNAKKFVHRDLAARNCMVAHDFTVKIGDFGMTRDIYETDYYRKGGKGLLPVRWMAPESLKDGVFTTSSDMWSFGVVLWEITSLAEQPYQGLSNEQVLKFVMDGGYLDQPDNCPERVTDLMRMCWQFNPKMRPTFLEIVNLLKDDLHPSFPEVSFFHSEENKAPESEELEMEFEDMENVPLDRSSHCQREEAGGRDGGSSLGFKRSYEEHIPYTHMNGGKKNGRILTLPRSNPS

A further experiment addresses PDGFR alpha (Homo sapiens, UniProt P16234). Kind of experiment: Kinase assay, PDGFR alpha (33P-ATP incorporation or luciferase-coupled ATP consumption). The conditions noted are these: read-out: PDGF-R-A IC50. In kind it is biochemical. The procedure: (§2) Kinase assays were performed by measurement of incorporation of γ-^33P ATP into immobilized myelin basic protein (MBP). […] Plates were washed 3× with 100 μl TBS. […] Compound dilutions were performed in DMSO and added to assay wells to a final DMSO concentration of 1%. Each data point was measured in duplicate, and at least two duplicate assays were performed for each individual compound determination. Enzyme was added to final concentrations of 10 nM or 20 nM, for example. A mixture of unlabeled ATP and γ-^33P ATP was added to start the reaction (2×10^6 cpm of γ-^33P ATP per well (3000 Ci/mmole) and either 10 μM or 30 μM unlabeled ATP, typically. The reactions were carried out for 1 hour at room temperature with shaking. Plates were washed 7× with TBS, followed by the addition of 50 μl/well scintillation fluid (Wallac). Plates were read using a Wallac Trilux counter. This is only one format of such assays, various other formats are possible, as known to one of ordinary skill in the art.
(§3) Tyrosine kinase activity is determined by 1) measurement of kinase-dependent ATP consumption by in the presence of a generic substrate such as, polyglutamic acid, tyrosine, 4:1 (pEY), by luciferase/luciferin-mediated chemiluminescence or; 2) incorporation of radioactive phosphate derived from ^33P-ATP into a generic substrate which has been adsorbed onto the well surface of polystyrene microtiter plates. Phosphorylated substrate products are quantified by scintillation spectrometry.
as §1

For experiment [1], the target named is T1, KDR (baculovirus expressed human KDR kinase domain D807-V1356) (Homo sapiens, UniProt P35968).
T1 construct: human KDR kinase domain D807-V1356; host or cells: baculovirus expression system
Kind of experiment: biochemical. As for the experimental part:
as §1
KDR biochemical activity was assessed using a Luciferase-Coupled Chemiluminescent Kinase assay (LCCA) format. Kinase activity was measured as the percent ATP remaining following the kinase reaction. Remaining ATP was detected by luciferase-luciferin-coupled chemiluminescence. […] The mixture is incubated at ambient temperature for 4 hours after which 20 uL luciferase-luciferin mix is added and the chemiluminescent signal read using a Wallac Victor^2 reader.

For another experiment, the target named is FGFR1 (Homo sapiens, UniProt P11362). Kind of experiment: Kinase assay, FGFR1 (33P-ATP incorporation or luciferase-coupled ATP consumption). In kind it is biochemical. As for the experimental part:
as §2, §3, §1

The target of the next experiment is Fyn (Homo sapiens, UniProt P06241). Description: Kinase assay, Fyn. The format is biochemical. As for the experimental part: as §1
Sequence of Fyn (P06241 whole entry, species assumed): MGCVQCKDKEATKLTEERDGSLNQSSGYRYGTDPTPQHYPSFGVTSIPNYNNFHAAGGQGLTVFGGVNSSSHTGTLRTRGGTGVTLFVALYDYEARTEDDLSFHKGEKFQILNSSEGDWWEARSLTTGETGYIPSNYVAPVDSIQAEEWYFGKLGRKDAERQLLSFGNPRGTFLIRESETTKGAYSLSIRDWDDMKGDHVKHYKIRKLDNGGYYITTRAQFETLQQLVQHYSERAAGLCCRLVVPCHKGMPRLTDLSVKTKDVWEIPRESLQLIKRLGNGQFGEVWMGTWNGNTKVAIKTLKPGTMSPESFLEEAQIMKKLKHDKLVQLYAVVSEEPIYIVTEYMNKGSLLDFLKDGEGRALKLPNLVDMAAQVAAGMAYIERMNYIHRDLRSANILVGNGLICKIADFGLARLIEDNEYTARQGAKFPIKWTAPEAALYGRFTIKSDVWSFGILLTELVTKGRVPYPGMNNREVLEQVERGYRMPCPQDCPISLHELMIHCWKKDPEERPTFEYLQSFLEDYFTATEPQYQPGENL
For another experiment, the target named is EGFR (Homo sapiens, UniProt P00533). Kind of experiment: Kinase assay, EGFR (33P-ATP incorporation or luciferase-coupled ATP consumption). In kind it is biochemical. The procedure: as §2, §3, §1
Another experiment deals with EphA2 (Homo sapiens, UniProt P29317). Description: Kinase assay, EphA2 (33P-ATP incorporation or luciferase-coupled ATP consumption). The format is biochemical. The procedure: as §2, §3, §1
Sequence of EphA2 (P29317 24-976, species assumed): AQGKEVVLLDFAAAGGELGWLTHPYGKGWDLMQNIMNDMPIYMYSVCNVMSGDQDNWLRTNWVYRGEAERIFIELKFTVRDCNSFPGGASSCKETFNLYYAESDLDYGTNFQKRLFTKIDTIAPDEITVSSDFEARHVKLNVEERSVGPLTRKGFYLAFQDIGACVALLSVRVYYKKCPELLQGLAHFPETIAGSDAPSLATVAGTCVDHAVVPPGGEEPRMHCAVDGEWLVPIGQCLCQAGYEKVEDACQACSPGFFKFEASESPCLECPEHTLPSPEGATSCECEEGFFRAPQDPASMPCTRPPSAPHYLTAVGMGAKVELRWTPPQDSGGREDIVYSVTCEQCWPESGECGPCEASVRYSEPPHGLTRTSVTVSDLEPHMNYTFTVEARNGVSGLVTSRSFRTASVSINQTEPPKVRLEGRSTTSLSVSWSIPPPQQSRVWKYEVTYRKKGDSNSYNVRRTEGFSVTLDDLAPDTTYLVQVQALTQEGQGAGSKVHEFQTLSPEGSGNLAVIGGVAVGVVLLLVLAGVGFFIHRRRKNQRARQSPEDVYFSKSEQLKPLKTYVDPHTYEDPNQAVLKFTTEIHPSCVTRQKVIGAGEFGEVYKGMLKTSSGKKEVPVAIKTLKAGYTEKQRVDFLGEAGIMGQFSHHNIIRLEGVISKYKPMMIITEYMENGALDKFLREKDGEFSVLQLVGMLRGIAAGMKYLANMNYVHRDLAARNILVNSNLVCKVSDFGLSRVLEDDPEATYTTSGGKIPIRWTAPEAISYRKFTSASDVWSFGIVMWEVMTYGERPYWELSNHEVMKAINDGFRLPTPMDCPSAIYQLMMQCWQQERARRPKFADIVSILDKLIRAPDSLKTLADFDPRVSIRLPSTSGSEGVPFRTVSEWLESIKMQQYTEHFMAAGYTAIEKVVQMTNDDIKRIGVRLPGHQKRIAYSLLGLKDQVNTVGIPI

Where only a bound is given, the exact number is not on record here.

Sequence of PDGFR alpha (P16234 24-1089): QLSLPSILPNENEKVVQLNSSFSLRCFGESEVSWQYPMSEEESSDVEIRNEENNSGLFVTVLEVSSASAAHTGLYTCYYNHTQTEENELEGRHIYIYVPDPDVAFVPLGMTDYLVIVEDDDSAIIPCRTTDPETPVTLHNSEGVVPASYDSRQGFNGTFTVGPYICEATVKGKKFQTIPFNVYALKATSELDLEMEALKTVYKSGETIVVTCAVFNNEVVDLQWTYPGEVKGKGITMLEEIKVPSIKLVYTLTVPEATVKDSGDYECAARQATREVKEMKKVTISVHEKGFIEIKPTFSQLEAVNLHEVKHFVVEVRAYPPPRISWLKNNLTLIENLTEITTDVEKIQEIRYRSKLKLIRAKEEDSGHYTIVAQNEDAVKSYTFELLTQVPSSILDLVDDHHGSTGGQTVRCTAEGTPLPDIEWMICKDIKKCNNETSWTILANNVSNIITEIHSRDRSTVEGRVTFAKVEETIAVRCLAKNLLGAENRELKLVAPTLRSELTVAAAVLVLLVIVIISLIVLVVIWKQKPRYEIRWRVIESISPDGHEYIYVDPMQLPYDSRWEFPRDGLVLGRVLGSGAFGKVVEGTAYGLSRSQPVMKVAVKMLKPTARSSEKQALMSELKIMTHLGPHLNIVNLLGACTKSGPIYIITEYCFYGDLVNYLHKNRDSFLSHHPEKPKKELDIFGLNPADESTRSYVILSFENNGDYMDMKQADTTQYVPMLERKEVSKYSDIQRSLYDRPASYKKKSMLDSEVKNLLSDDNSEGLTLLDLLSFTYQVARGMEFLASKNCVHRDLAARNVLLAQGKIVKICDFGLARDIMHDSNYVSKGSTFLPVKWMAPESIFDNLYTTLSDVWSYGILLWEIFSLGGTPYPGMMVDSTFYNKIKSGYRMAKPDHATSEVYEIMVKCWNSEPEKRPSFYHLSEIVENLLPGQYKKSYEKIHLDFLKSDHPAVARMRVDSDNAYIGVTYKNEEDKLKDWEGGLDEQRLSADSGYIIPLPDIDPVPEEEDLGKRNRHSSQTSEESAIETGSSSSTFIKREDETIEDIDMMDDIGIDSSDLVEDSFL
Sequence of FGFR1 (P11362 22-822, species assumed): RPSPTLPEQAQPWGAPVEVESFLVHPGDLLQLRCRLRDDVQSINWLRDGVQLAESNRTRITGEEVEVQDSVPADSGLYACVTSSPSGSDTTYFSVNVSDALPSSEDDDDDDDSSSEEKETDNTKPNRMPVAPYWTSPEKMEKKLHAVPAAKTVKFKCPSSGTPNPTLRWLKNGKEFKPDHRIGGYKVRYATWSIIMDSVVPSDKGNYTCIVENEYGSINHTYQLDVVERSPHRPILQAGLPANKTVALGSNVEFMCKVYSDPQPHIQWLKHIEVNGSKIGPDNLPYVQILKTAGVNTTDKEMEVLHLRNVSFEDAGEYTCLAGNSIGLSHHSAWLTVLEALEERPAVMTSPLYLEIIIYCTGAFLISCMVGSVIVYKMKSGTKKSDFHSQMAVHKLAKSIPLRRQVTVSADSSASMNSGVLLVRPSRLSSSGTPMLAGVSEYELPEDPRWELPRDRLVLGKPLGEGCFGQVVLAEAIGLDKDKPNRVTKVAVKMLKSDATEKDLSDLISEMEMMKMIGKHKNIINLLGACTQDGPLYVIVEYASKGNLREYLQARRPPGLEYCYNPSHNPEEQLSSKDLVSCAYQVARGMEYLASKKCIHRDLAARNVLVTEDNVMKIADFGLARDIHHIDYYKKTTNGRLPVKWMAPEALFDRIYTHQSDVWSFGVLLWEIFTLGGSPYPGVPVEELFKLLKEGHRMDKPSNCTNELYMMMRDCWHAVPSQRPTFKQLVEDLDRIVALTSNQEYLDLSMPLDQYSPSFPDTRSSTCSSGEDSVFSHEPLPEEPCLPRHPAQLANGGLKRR

For the molecule `O=C1Nc2ccc(NC3CCN(CCN4CCOCC4)CC3)cc2/C1=C(\c1cccc(F)c1)c1ncc[nH]1` [Entry 83], the half-inhibitory concentration (IC50) was over 5000 nM against IRK; under 50 nM at PDGFR alpha; under 50 nM in experiment [1]; under 50 nM on FGFR1; 50 to 500 nM against Fyn; over 5000 nM against EGFR. At EphA2, this molecule came in with a 50% inhibitory concentration (IC50) of 500 to 5000 nM.

For `O=C1Nc2ccc(NC3CCNCC3)cc2/C1=C(\c1cccc(F)c1)c1ncc[nH]1` [Entry 81, (3Z)-3-[(3-fluorophenyl)(1H-imidazol-2-yl)methylidene]-5-(piperidin-4-ylamino)-1,3-dihydro-2H-indol-2-one], the IC50 on IRK is 500 to 5000 nM; at PDGFR alpha, under 50 nM; in experiment [1] it was under 50 nM; at FGFR1, under 50 nM; against Fyn it was under 50 nM; against EGFR, over 5000 nM. Further, the IC50 against EphA2 lay in the range of 50 to 500 nM.

As to `COCCN1CCC(Nc2ccc3c(c2)/C(=C(\c2cccc(F)c2)c2ncn[nH]2)C(=O)N3)CC1` [Entry 87], the IC50 at IRK was over 5000 nM; on PDGFR alpha it was 50 to 500 nM; in experiment [1], 50 to 500 nM; at FGFR1, 50 to 500 nM; at Fyn it was over 5000 nM; on EGFR, over 5000 nM. The same molecule came in with an IC50 on EphA2 of over 5000 nM.

`CS(=O)(=O)N1CCC(Nc2ccc3c(c2)/C(=C(\c2cccc(F)c2)c2ncc[nH]2)C(=O)N3)CC1` [Entry 93, (3Z)-3-[(3-fluorophenyl)(1H-imidazol-2-yl)methylidene]-5-{[1-(methylsulfonyl)piperidin-4-yl]amino}-1,3-dihydro-2H-indol-2-one]: the half-maximal inhibitory concentration (IC50) against IRK was 500 to 5000 nM; in experiment [1] it was 50 to 500 nM; against FGFR1, 50 to 500 nM; against Fyn, over 5000 nM; against EGFR, over 5000 nM; against EphA2 it was over 5000 nM.

Turning to `COCCN1CCC(Nc2ccc3c(c2)/C(=C(\c2ccccc2)c2nc4cc(Cl)ccc4[nH]2)C(=O)N3)CC1` [Entry 72], the IC50 on IRK was over 5000 nM; on PDGFR alpha, under 50 nM; in experiment [1], under 50 nM; against FGFR1, under 50 nM; against Fyn it was 50 to 500 nM; against EGFR it was over 5000 nM. Further, the IC50 against EphA2 lay in the range of 500 to 5000 nM.

For `COCCN1CCC(Nc2ccc3c(c2)/C(=C(\c2cccc(F)c2)c2nc(-c4ccccc4)c[nH]2)C(=O)N3)CC1` [Entry 96, (3Z)-3-[(3-fluorophenyl)(4-phenyl-1H-imidazol-2-yl)methylidene]-5-({1-[2-(methyloxy)ethyl]piperidin-4-yl}amino)-1,3-dihydro-2H-indol-2-one], the IC50 against IRK is 500 to 5000 nM; in experiment [1], under 50 nM; against FGFR1, under 50 nM; against Fyn it was under 50 nM; against EGFR, 50 to 500 nM; against EphA2, 500 to 5000 nM.

`COCCN1CCC(Nc2ccc3c(c2)/C(=C(\c2ccc(OC)cc2)c2ncc[nH]2)C(=O)N3)CC1` [Entry 90]: the IC50 at IRK is over 5000 nM; on PDGFR alpha, under 50 nM; in experiment [1] it was under 50 nM; on FGFR1, 50 to 500 nM; at Fyn it was under 50 nM; at EGFR it was over 5000 nM. The molecule also returned an IC50 on EphA2 of 500 to 5000 nM.

For the molecule `Cc1ccc(/C(=C2/C(=O)Nc3ccc(NC4CCN(C)CC4)cc32)c2ncc[nH]2)cc1` [Entry 86], the IC50 against IRK was 500 to 5000 nM; at PDGFR alpha it was under 50 nM; in experiment [1], under 50 nM; at FGFR1 it was under 50 nM; on Fyn it was under 50 nM; against EGFR it was 50 to 500 nM. For the same molecule, the IC50 against EphA2 fell in the range of 50 to 500 nM.

Regarding `CCN1CCC(Oc2ccc3c(c2)/C(=C(\c2ccccc2)c2nc4cc(OC)ccc4[nH]2)C(=O)N3)CC1` [Entry 14, (3Z)-5-[(1-ethytpiperidin-4-yl)oxy]-3-[[5-(methyloxy)-1H-benzimidazol-2-yl](phenyl)methylidene]-1,3-dihydro-2H-indol-2-one], the IC50 was 500 to 5000 nM against IRK, under 50 nM against Fyn, 500 to 5000 nM against EGFR and 500 to 5000 nM at EphA2.

As to `CCCc1ccc(/C(=C2/C(=O)Nc3ccc(NC4CCN(CCOC)CC4)cc32)c2ncc[nH]2)cc1` [Entry 94, (3Z)-3-[1H-imidazol-2-yl(4-propylphenyl)methylidene]-5-({1-[2-(methyloxy)ethyl]piperidin-4-yl}amino)-1,3-dihydro-2H-indol-2-one], the IC50 on IRK is 500 to 5000 nM; in experiment [1] it was under 50 nM; on FGFR1, under 50 nM; on Fyn it was under 50 nM; against EGFR it was 50 to 500 nM; against EphA2, 500 to 5000 nM.

With `CCN1CCC(Nc2ccc3c(c2)/C(=C(\c2cccc(F)c2)c2nc(-c4ccccc4)c[nH]2)C(=O)N3)CC1` [Entry 95, (3Z)-5-[(1-ethylpiperidin-4-yl)amino]-3-[(3-fluorophenyl)(4-phenyl-1H-imidazol-2-yl)methylidene]-1,3-dihydro-2H-indol-2-one], the IC50 is 500 to 5000 nM against IRK; under 50 nM in experiment [1]; under 50 nM against FGFR1; under 50 nM against Fyn; 50 to 500 nM on EGFR; 500 to 5000 nM against EphA2.

For `CCN1CCCC(Nc2ccc3c(c2)/C(=C(\c2ccccc2)c2nc4cc(OC)ccc4[nH]2)C(=O)N3)C1` (stereo not shown) [Entry 2, (3Z)-5-[(1-ethylpiperidin-3-yl)amino]-3-[[5-(methyloxy)-1H-benzimidazol-2-yl](phenyl)methylidene]-1,3-dihydro-2H-indol-2-one], the IC50 at Fyn, on EGFR and at EphA2 was 500 to 5000 nM each time.

In the case of `CCN1CCC(Nc2ccc3c(c2)/C(=C(\c2cc(F)cc(F)c2)c2nc4cc(Cl)ccc4[nH]2)C(=O)N3)CC1` [Entry 56, (3Z)-3-[(5-chloro-1H-benzimidazol-2-yl) (3,5-dilfuorophenyl)methylidene]-5-[(1-ethylpiperidin-4-yl)amino]-1,3-dihydro-2H-indol-2-one], the concentration for half-maximal inhibition (IC50) against IRK was over 5000 nM; at PDGFR alpha it was under 50 nM; in experiment [1], under 50 nM; on FGFR1, 50 to 500 nM; against Fyn it was under 50 nM; at EphA2 it was 500 to 5000 nM.

Consider `CCN1CCC(Nc2ccc3c(c2)/C(=C(\c2ccccc2)c2nc4cc(Cl)ccc4[nH]2)C(=O)N3)CC1` [Entry 55, (3Z)-3-[(5-chloro-1H-benzimidazol-2-yl)(phenyl)methylidene]-5-[(1-ethylpiperidin-4-yl)amino]-1,3-dihydro-2H-indol-2-one], for which the half-maximal inhibitory concentration (IC50) against IRK is 500 to 5000 nM; on PDGFR alpha it was under 50 nM; in experiment [1], under 50 nM; on FGFR1, 50 to 500 nM; against Fyn it was under 50 nM; at EphA2, 500 to 5000 nM.

Regarding `CCN1CCC(Nc2ccc3c(c2)/C(=C(\c2ccc(F)c(C)c2)c2nc4ccccc4[nH]2)C(=O)N3)CC1` [Entry 52, (3Z)-3-[1H-benzimidazol-2-yl(4-fluoro-3-methylphenyl)methylidene]-5-{(1-ethylpiperidin-4-yl)amino]-1,3-dihydro-2H-indol-2-one], the half-maximal inhibitory concentration (IC50) against IRK is 500 to 5000 nM; at PDGFR alpha, under 50 nM; in experiment [1], under 50 nM; against FGFR1 it was 50 to 500 nM; at Fyn, under 50 nM; against EphA2, 500 to 5000 nM.

Turning to `COCCN1CCC(Nc2ccc3c(c2)/C(=C(\c2ccc(C(F)(F)F)nc2)c2ncc[nH]2)C(=O)N3)CC1` [Entry 98], the half-maximal inhibitory concentration (IC50) is over 5000 nM against IRK; 50 to 500 nM in experiment [1]; 50 to 500 nM against FGFR1; 50 to 500 nM on Fyn; over 5000 nM at EGFR; 500 to 5000 nM against EphA2.

Take `CCN1CCC(Nc2ccc3c(c2)/C(=C(\c2cccc(F)c2)c2ncn[nH]2)C(=O)N3)CC1` [Entry 99, (3Z)-5-[(1-ethylpiperidin-4-yl)amino]-3-[(3-fluorophenyl)(1H-1,2,4-triazol-5-yl)methylidene]-1,3-dihydro-2H-indol-2-one]: the IC50 against IRK is over 5000 nM; in experiment [1], 50 to 500 nM; on FGFR1, 50 to 500 nM; at Fyn, over 5000 nM; at EGFR, over 5000 nM; on EphA2, over 5000 nM.
